Experimental findings from patent US8981112B2, “Inhibitors of β-secretase” (Boehringer Ingelheim International GmbH, priority 2012, dated 2015) are described below.

In data set [1] the test system is production of Abeta1-x peptides in H4 neuroglioma cell line stably expressing human APP. In words: H4-APPwt Cell-Based Assay (Assay 2), Abeta1-x production. As to conditions: for pIC50: Homo sapiens, Table 2 comparison examples, read-out: H4-Cell assay (assay 2); for IC50: H4 neuroglioma cells expressing human APP, Abeta1-x, read-out: H4-APPwt cell IC50 nM (assay 2). Here is the method: H4-APPwt Cell-Based Assay (Assay 2)
Cellular potency of the compounds of the invention was assessed in an assay monitoring production of Abeta1-x peptides in the H4 neuroglioma cell line (ATCC, Cat. #HTB-148) stably expressing human APP, using an immunoassay such as AlphaLISA (PerkinElmer, Cat.# AL288). Tested compounds were dissolved in DMSO and pre-diluted in the culture medium (DMEM containing 10% FBS and 1% penicillin/streptomycin) to achieve twice the final concentration of the compounds in the assay. Equal volumes of the 2× solutions of the tested compounds and cell suspension were added to a 96-well culture plate, so that each well contained ˜10,000 cells in a final volume of 200 μl. Final concentration of DMSO in the assay was 0.2%. The plates were incubated for 5 hrs at 37° C., 5% CO2 to allow cells to attach to the bottom of the wells in the presence of the tested compounds. Then the media was removed and replaced with fresh media containing tested compounds at the same final concentration. The plates were incubated for 18 hrs at 37° C., 5% CO2. Concentrations of Ab1-x were determined using AlphaLISA immunoassay (PerkinElmer, Cat.# AL288) following manufacturer's protocol. Concentrations of Abeta1-x in the wells containing either DMSO or 10 μM beta-secretase inhibitor (BACE inhibitor IV, EMD Bioscience, Cat. #565788) were used as uninhibited and background controls, correspondingly, for calculating percent inhibition values for each well with the tested compounds.

The target in the next data set is hERG (Homo sapiens (Human), UniProt Q12809). Description: hERG-Channel Assay (Assay 3), whole-cell patch clamp. The following applies: for inhibition at 10 µM: human, HEK293 cells stably transfected with hERG, pH 7.4, HEK293 cells transfected with hERG. The format is cell-based. The source says:
hERG-Channel Assay (Assay 3)
HEK (human embryonic kidney) 293 cells were stably transfected with hERG cDNA.
Cells were superfused with a bath solution containing (mM): NaCl (137), KCl (4.0), MgCl2 (1.0), CaCl2 (1.8), Glucose (10), HEPES (10), pH 7.4 with NaOH. Patch pipettes were made from borosilicate glass tubing using a horizontal puller and filled with pipette solution containing (mM): K-aspartate (130), MgCl2 (5.0), EGTA (5.0), K2ATP (4.0), HEPES (10.0), pH 7.2 with KOH. Resistance of the microelectrodes was in the range between 2 and 5 MΩ.
Membrane currents were recorded using an EPC-10 patch clamp amplifier and PatchMaster software. hERG-mediated membrane currents were recorded at 35° C., using the whole-cell configuration of the patch-clamp technique. Transfected HEK293 cells were clamped at a holding potential of −60 mV and hERG-mediated inactivating tail currents were elicited using a pulse pattern with fixed amplitudes (activation/inactivation: 40 mV for 2000 ms; recovery: −120 mV for 2 ms; ramp to 40 mV in 2 ms; inactivating tail current: 40 mV for 50 ms) repeated at 15 s intervals. During each inter-pulse interval 4 pulses scaled down by a factor of 0.2 were recorded for a P/n leak subtraction procedure. Rs compensation was employed up to a level that safely allowed recording devoid of ringing.
The different concentrations of the test compound were applied sequentially on each of the different cells investigated. A steady state level of baseline current was measured for at least 6 sweeps prior to the application of the first test compound concentration.
The test compound was dissolved in DMSO to yield a master stock solution which was diluted further in DMSO to stock solutions needed for the lower concentrations. Final dilutions in extracellular buffer were prepared freshly from these stocks by a 1:1000 dilution step each before starting the experiments.
Peak current amplitudes were measured 3 ms after the ramp to +40 mV. For baseline and each concentration the peak currents of the three last sweeps before application of the next concentration were averaged. Residual currents (I/I0) were calculated for each cell as the fraction of actual average peak current and average baseline peak current. Results are presented as percent (%) inhibition (1−I/I0)*100% at 10 μM.

The target of data set [2] is truncated human beta-secretase, BACE1 (amino acids 1-454) (Homo sapiens (Human), UniProt P56817). Description: BACE1 Assay (Assay 1), fluorescence quench assay. As to conditions: for pIC50: Table 2 comparison examples, read-out: BACE IC50 (assay 1); for IC50: read-out: BACE1 IC50 nM (assay 1). The format is biochemical. Here is the method:
The substrate was dissolved at 1 mg/ml in DMSO.
The assay was performed in the presence of OptiMEM (supernatant collected over 24 h and cleared from cellular debris by centrifugation) containing the ectodomain of BACE1, 25 μl water containing the desired 2-fold concentration of test compound and 2% DMSO, 1 μM substrate peptide, 20 mM NaOAc, pH 4.4, and 0.04% Triton-X100 in a total assay volume of 50 μl in a 384 well plate. In general, 25 μl of compound dilution were given to the plate followed by the addition of 10 μl of BACE1 containing OptiMEM™ diluted 1:10 in water with 0.2% Triton X-100. The reaction was started with the addition of 15 μl substrate in NaOAc buffer. The reaction was incubated at rt (dark) in an Envision® multilabel reader (Perkin Elmer) and the cleavage of the substrate was recorded as kinetic for 60 min at ex: 485 nm, em: 538 nm. Blank wells containing no enzyme were included on each plate.
The intensity of fluorescence was regressed against time in order to derive velocities of reaction in all 384 wells. These velocities were used for calculating percent control using an uninhibited control containing 1% DMSO as 100% and blank control performed in the absence of enzyme as 0%. IC50 values were calculated by fitting percent control vs. test compound concentration using Assay Explorer.

A short description of data set [3]: In Vitro Phospholipidosis Assay (Assay 4), Nile red staining. The following applies: human, first effect concentration, U937 cells, read-out: Phospholipidosis FEC IC50 μM (assay 4). The format is cell-based. Here is the method:
In Vitro Phospholipidosis Assay (Assay 4)
The phospholipidogenic potential of test compounds was assayed using the human hematopoetic U937 cell line. The test principle was to analyze the phospholipid content by staining the cells with the fluorescent dye Nile red.
U937 cells were seeded into cell culture plates at 0.5×10^6 cells/mL in RPMI medium containing 10% FBS, 1% DMSO, and 0.005% gentamicin. The cells were then cultivated with or without different concentrations of test compounds for 48 h under standard culture conditions.
For harvesting the cells were centrifuged at 130×g for 4 min and washed once with PBS. Then 2×0.5 mL cell suspension was prepared for non-fixed cell measurement (0.5 mL for propidium iodide (PI) viability measurement and 0.5 mL for Nile red measurement).
The remaining cells were fixed with 3.7% formaldehyde for 30 min. After a further centrifugation step cells were resuspended with 1.3 mL Nile red working solution (1 μg/mL) and incubated for 5 min at rt. The cell suspension was then washed twice with 3 mL PBS and centrifuged with 130×g for 4 min. The supernatant was discarded and the cells were resuspended with 0.5 mL PBS and kept for flow cytometry measurement. For Nile red staining of the 0.5 mL non-fixed cell samples, 50 μL of a ready to use Nile red solution (10 μg/mL) were added per sample. Samples were kept on ice for 5 min. Thereafter, they were washed once with 4 mL PBS (4° C., 250×g for 8 min) and finally resuspended in 400 μL PBS and kept for flow cytometry measurement.
For the viability measurement, 12.5 μL of the ready to use PI solution (10 μg/mL) were added to the 0.5 mL non-fixed cell suspension. After 15 min of incubation on ice, the samples were measured by flow cytometry using a Coulter Epics XL/MCL flow cytometer.
The viability of the cells of each sample was determined by flow cytometry measurement of the PI content at channel 2 (568-590 nm). Cut-off gates for the fluorescence-dependent differentiation between live and dead cells were defined based on the analysis of cell culture medium control samples.
Only samples with a cell viability of >=90% relative to control samples were analyzed for phospholipidosis. For that, each Nile red sample (non-fixed and fixed samples) was measured by flow cytometry at channel 1 (504-541 nm) and channel 4 (660-680 nm).
For each channel, relative Nile red fluorescence intensity of a test sample was calculated compared to control samples and expressed as percentage of control fluorescence intensity. The assessment of the phospholipidogenic potential and the first effect concentration (FEC) of a test compound was done manually based on the fluorescence intensities at both wavelengths for the fixed cells as well as for the non-fixed cells.

pIC50: −log10 of the molar value. Where two headings read alike, the source gives them in different places.

Sequence of hERG (Q12809 whole entry): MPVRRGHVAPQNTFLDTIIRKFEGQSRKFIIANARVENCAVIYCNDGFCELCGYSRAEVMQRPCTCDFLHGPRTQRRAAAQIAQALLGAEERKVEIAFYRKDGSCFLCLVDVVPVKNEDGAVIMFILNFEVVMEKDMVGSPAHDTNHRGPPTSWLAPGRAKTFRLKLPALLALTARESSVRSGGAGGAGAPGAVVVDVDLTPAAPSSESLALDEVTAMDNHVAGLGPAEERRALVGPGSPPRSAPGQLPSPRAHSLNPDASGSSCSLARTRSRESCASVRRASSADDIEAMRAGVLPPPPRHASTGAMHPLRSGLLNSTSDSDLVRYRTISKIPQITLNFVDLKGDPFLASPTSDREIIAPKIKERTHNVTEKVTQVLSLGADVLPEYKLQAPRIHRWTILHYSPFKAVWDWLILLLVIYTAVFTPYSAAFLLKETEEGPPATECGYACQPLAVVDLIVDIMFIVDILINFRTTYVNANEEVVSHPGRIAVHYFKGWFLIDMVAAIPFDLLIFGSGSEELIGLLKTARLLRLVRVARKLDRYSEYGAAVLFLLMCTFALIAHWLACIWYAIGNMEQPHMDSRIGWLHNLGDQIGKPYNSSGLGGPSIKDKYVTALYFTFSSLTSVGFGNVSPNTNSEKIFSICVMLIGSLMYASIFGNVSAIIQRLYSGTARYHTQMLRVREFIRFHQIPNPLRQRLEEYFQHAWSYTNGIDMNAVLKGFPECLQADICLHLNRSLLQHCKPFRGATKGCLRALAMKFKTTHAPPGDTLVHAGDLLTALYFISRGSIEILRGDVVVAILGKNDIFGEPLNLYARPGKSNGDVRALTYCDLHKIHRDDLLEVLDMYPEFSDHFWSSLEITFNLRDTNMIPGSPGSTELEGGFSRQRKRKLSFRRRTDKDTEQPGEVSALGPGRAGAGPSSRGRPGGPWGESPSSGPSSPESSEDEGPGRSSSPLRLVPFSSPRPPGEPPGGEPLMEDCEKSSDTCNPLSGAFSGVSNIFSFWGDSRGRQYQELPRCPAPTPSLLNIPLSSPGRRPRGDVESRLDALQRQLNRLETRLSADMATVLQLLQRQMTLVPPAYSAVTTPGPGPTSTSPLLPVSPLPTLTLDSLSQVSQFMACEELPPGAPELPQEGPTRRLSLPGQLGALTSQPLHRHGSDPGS
Sequence of truncated human beta-secretase, BACE1 (amino acids 1-454) (P56817 22-454): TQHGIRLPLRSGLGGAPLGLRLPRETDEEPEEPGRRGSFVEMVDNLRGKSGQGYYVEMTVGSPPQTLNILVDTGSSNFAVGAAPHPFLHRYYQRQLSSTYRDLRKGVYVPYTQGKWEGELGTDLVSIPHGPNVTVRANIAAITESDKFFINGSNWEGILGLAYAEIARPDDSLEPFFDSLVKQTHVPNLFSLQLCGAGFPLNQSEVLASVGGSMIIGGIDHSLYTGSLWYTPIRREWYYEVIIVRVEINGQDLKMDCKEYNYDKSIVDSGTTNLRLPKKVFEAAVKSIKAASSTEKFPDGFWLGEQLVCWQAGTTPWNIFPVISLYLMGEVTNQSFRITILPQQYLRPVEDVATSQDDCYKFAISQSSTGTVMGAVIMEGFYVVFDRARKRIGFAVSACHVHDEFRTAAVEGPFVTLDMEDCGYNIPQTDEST

For `COC1CCC2(CC1)Cc1ccc(C#N)cc1C21N=C(N)N(CC2CCCO2)C1=O` (centres unmarked) [Comparison example drawing 11, reference compound], in data set [1], the pIC50 was 8.15. In addition, the “hERG (assay 3)” value at hERG (at 10 μM, Table 2 comparison examples) is given as “hERG (assay 3) 16% at 10 μM”.
Consider `COCCN1C(=O)C2(N=C1N)c1cc(C#N)ccc1C[C@]21CC[C@@H](OC)CC1` (some centres unmarked) [Comparison example drawing 14, reference compound], for which the pIC50 in data set [2] was 7.31; in data set [1], 7.80.
For `COC1CCC2(CC1)Cc1ccc(C#N)cc1C21N=C(N)N(C(C)C)C1=O` (centres unmarked) [Comparison example drawing 17, reference compound], in that order: 6.97 and 7.80.
For `CO[C@H]1CC[C@]2(CC1)Cc1ccc(CCC3CC3)cc1[C@]21N=C(N)N(C[C@@H]2CCO2)C1=O` [Comparison example drawing 20, reference compound], the values for the pIC50 in data set [2] and in data set [1] were 6.38 and 7.80, respectively.
The IC50 is the concentration at which inhibition is half-maximal. For orientation: inhibition means the share of the control response that was lost under treatment. `CC[C@@H]1C[C@]2(CC[C@H]1OC)Cc1ccc(C#N)cc1[C@]21N=C(N)N(Cc2ncccn2)C1=O` [Example 1]: the IC50 in data set [2] turned out to be 11 nM; in data set [1], 0.76 nM. Further, the inhibition at 10 µM against hERG turned out to be 8%. In addition, the IC50 at 48 h in data set [3] turned out to be 200 µM.
For `CC[C@@H]1C[C@]2(CC[C@H]1OC)Cc1ccc(C#N)cc1[C@]21N=C(N)N(CC(C)(C)F)C1=O` [Example 3], in that order: 10 nM, 0.57 nM, 9% and more than 200 µM.
Turning to `CC[C@H]1C[C@@]2(CC[C@@H]1OC)Cc1ccc(C#N)cc1[C@]21N=C(N)N(C[C@H]2CCCO2)C1=O` [Example 5], the IC50 in data set [1] is 0.9 nM. For the same compound, at hERG, the inhibition at 10 µM is 7%. Besides, the 50% inhibitory concentration (IC50) at 48 h in data set [3] was 200 µM.
In the case of `COCCN1C(=O)[C@]2(N=C1N)c1cc(C#N)ccc1C[C@@]21CC[C@H](OC)[C@@H](C)C1` [Example 7], the IC50 in data set [2] stood at 2 nM; in data set [1] it was 1.42 nM. Moreover, at 10 µM the inhibition against hERG was 8%. In addition, in data set [3], the IC50 at 48 h stood at 400 µM.
For `CO[C@H]1[C@H](C)C[C@@]2(Cc3ccc(C#N)cc3[C@]23N=C(N)N(Cc2ncc(F)cn2)C3=O)C[C@@H]1C` [Example 10], in that order: 9 nM, 1.12 nM, 38% and 200 µM.
Taken in the same sequence, the figures for `CO[C@H]1[C@H](C)C[C@@]2(Cc3ccc(C#N)cc3[C@]23N=C(N)N(CC2(C)COC2)C3=O)C[C@@H]1C` [Example 11] were 4 nM, 0.35 nM, 6% and more than 400 µM.
Taken in the same sequence, the figures for `CO[C@H]1[C@H](C)C[C@@]2(Cc3ccc(C#N)cc3[C@]23N=C(N)N(CC2CCOCC2)C3=O)C[C@@H]1C` [Example 16] were 11 nM, 0.2 nM, 6% and 200 µM.
Consider `CO[C@H]1[C@H](C)C[C@@]2(Cc3ccc(C#N)cc3[C@]23N=C(N)N(CCC2COC2)C3=O)C[C@@H]1C` [Example 19], for which the IC50 in data set [2] worked out at 6 nM; in data set [1], 0.4 nM. The same compound registered an inhibition at 10 µM against hERG of 8%. In data set [3], the IC50 at 48 h worked out at 400 µM.
On to `CO[C@H]1[C@H](C)C[C@@]2(Cc3ccc(C#N)cc3[C@]23N=C(N)N(Cc2ccncn2)C3=O)C[C@@H]1C` [Example 24], for which the IC50 was 5 nM in data set [2] and 0.65 nM in data set [1]. The inhibition at 10 µM against hERG worked out at 23%. For the same compound, in data set [3], the IC50 at 48 h amounted to 200 µM.
Take `CO[C@H]1[C@H](C)C[C@@]2(Cc3ccc(F)cc3[C@]23N=C(N)N(C[C@@H]2CCOC2)C3=O)C[C@@H]1C` [Example 25]: in data set [1], the IC50 stood at 0.99 nM. Also, at hERG, at 10 µM the inhibition was 10%. The IC50 at 48 h in data set [3] came to 200 µM.
Take `CO[C@H]1CC[C@@]2(Cc3ccc(C#N)cc3[C@]23N=C(N)N(CC2COCCO2)C3=O)C[C@@H]1C` (some centres unmarked) [Example 27]: the values for the IC50 in data set [2] and in data set [1] were 6 nM and 0.95 nM, respectively. At hERG, this compound came in with an inhibition at 10 µM of 19%. Further, the IC50 at 48 h in data set [3] was more than 200 µM.
